Source: patent US20060079566A1, “PDK-1/Akt signaling inhibitors” (priority 2003, published 2006)
Entries after “also recorded” stand apart in the source; their conditions may differ. Read-outs that look alike come from different tables or passages of the source.

How the values were obtained:
[1] = in vivo
U251 = assay: NCI DTP screen (SRB), CNS Cancer; format: cell-based, human; conditions: Log10 Concentration −4.0
Description: Screening of compounds 70 and 71 against several cancer cell lines The human tumor cell lines of the cancer screening panel are grown in RPMI 1640 medium containing 5% fetal bovine serum and 2 mM L-glutamine. For a typical screening experiment, cells are inoculated into 96 well microtiter plates in 100 μL at plating densities ranging from 5,000 to 40,000 cells/well depending on the doubling time of individual cell lines. After cell inoculation, the microtiter plates are incubated at 37° C., 5% CO2, 95% air and 100% relative humidity for 24 h prior to addition of experimental drugs. […]
Following drug addition, the plates are incubated for an additional 48 h at 37° C., 5% CO2, 95% air, and 100% relative humidity. […] Bound stain is subsequently solubilized with 10 mM trizma base, and the absorbance is read on an automated plate reader at a wavelength of 515 nm. […] Using the seven absorbance measurements [time zero, (Tz), control growth, (C), and test growth in the presence of drug at the five concentration levels (Ti)], the percentage growth is calculated at each of the drug concentrations levels. Percentage growth inhibition is calculated as: [(Ti−Tz)/(C−Tz)]×100 for concentrations for which Ti>/=Tz [(Ti−Tz)/Tz]×100 for concentrations for which Ti<Tz
Three dose response parameters are calculated for each experimental agent. […]

UO-31 = assay: NCI DTP screen (SRB), Renal Cancer; format: cell-based, human; conditions: UD-31
Description: (§1) Screening of compounds 70 and 71 against several cancer cell lines The human tumor cell lines of the cancer screening panel are grown in RPMI 1640 medium containing 5% fetal bovine serum and 2 mM L-glutamine. For a typical screening experiment, cells are inoculated into 96 well microtiter plates in 100 μL at plating densities ranging from 5,000 to 40,000 cells/well depending on the doubling time of individual cell lines. After cell inoculation, the microtiter plates are incubated at 37° C., 5% CO2, 95% air and 100% relative humidity for 24 h prior to addition of experimental drugs.
(§2) After 24 h, two plates of each cell line are fixed in situ with TCA, to represent a measurement of the cell population for each cell line at the time of drug addition (Tz). Experimental drugs are solubilized in dimethyl sulfoxide at 400-fold the desired final maximum test concentration and stored frozen prior to use. At the time of drug addition, an aliquot of frozen concentrate is thawed and diluted to twice the desired final maximum test concentration with complete medium containing 50 μg/ml gentamicin. Additional four, 10-fold or ½ log serial dilutions are made to provide a total of five drug concentrations plus control. Aliquots of 100 μl of these different drug dilutions are added to the appropriate microtiter wells already containing 100 μl of medium, resulting in the required final drug concentrations.
(§3) Following drug addition, the plates are incubated for an additional 48 h at 37° C., 5% CO2, 95% air, and 100% relative humidity. For adherent cells, the assay is terminated by the addition of cold TCA. Cells are fixed in situ by the gentle addition of 50 μl of cold 50% (w/v) TCA (final concentration, 10% TCA) and incubated for 60 minutes at 4° C. The supernatant is discarded, and the plates are washed five times with tap water and air dried. Sulforhodamine B (SRB) solution (100 μl) at 0.4% (w/v) in 1% acetic acid is added to each well, and plates are incubated for 10 minutes at room temperature. After staining, unbound dye is removed by washing five times with 1% acetic acid and the plates are air dried. Bound stain is subsequently solubilized with 10 mM trizma base, and the absorbance is read on an automated plate reader at a wavelength of 515 nm. For suspension cells, the methodology is the same except that the assay is terminated by fixing settled cells at the bottom of the wells by gently adding 50 μl of 80% TCA (final concentration, 16% TCA). Using the seven absorbance measurements [time zero, (Tz), control growth, (C), and test growth in the presence of drug at the five concentration levels (Ti)], the percentage growth is calculated at each of the drug concentrations levels. Percentage growth inhibition is calculated as: [(Ti−Tz)/(C−Tz)]×100 for concentrations for which Ti>/=Tz [(Ti−Tz)/Tz]×100 for concentrations for which Ti<Tz
(§4) Three dose response parameters are calculated for each experimental agent. […] The drug concentration resulting in total growth inhibition (TGI) is calculated from Ti=Tz. […] Values are calculated for each of these three parameters if the level of activity is reached; however, if the effect is not reached or is exceeded, the value for that parameter is expressed as greater or less than the maximum or minimum concentration tested.

RXP 393 = assay: NCI DTP screen (SRB), Renal Cancer; format: cell-based, human
Description: as §1, §2, §3, §4

[2] = test system: sixty human tumor cell lines; assay: NCI DTP sixty cell line assay, means over the panel; format: cell-based
Description: as §1, §2, §3, §4

immunoprecipitated Akt = assay: Direct inhibition of immunoprecipitated Akt kinase activity; format: biochemical, human
LOX IMVI = assay: NCI DTP screen (SRB), Melanoma; format: cell-based; conditions: LOX IKVI
Description: as §1, §2, §3, §4

MALNE-3M = assay: NCI DTP screen (SRB), Melanoma; format: cell-based; conditions: MALME-3M
MCP7 = assay: NCI DTP screen (SRB), Breast Cancer; format: cell-based, human; conditions: MCF7
Description: as §1, §2, §3, §4

[3] = Preliminary animal studies, daily oral administration; conditions: daily oral administration for one month; data not shown
NCI-H322M = assay: NCI DTP screen (SRB), Non-Small Cell Lung Cancer; format: cell-based; conditions: NCI-H322H
Description: as §1, §2, §3, §4

recombinant PDK-1 = biological target: T1, recombinant PDK-1 (Homo sapiens, UniProt O15530); assay: PDK-1 kinase activity (Upstate kit, SGK-coupled, cell-free); format: biochemical; conditions: ratio of IC50 values
T1 construct: purchased Upstate (Lake Placid, N.Y.)
T1 sequence (O15530 1-556): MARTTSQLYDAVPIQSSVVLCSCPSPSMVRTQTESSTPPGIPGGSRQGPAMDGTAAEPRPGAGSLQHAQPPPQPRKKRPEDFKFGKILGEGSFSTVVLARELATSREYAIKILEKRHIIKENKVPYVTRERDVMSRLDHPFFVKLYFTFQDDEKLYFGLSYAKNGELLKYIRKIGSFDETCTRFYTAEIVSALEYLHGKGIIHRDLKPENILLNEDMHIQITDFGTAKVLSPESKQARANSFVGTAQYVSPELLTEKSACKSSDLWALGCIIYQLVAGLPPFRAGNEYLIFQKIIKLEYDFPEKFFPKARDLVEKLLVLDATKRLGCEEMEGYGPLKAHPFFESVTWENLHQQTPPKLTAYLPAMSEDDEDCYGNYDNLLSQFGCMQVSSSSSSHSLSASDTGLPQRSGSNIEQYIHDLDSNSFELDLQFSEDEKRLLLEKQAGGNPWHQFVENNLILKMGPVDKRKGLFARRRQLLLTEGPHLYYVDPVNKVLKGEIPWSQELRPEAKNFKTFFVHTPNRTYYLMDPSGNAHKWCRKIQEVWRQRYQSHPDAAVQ
Description: PDK-1 kinase activity This in vitro assay was performed using a PDK-1 kinase assay kit (Upstate, Lake Placid, N.Y.) according to the vendor's instructions. This cell-free assay is based on the ability of recombinant PDK-1, in the presence of DMSO vehicle or the test agent, to activate its downstream kinase serum- and glucocorticoid-regulated kinase (SGK.) which, in turn, phosphorylates the Akt/SGK-specific peptide substrate RPRAATF with [γ-^32]-ATP. […] The reported values represent the means of two independent determinations.

HS 57BT = assay: NCI DTP screen (SRB), Breast Cancer; format: cell-based; conditions: HS S78T
Description: as §1, §2, §3, §4

PC-3 cells [4] = assay: Cell proliferation (Coulter counter) in PC-3 cells; format: cell-based, human; conditions: 1 μM; 10% FBS-supplemented RPMI 1640 medium
Description: (§5) Cell Culture PC-3 (p53−/−) human androgen-nonresponsive prostate cancer cells were purchased from the American […] (Manassas, Va.). Cells were cultured in RPMI 1640 medium (Gibco, Grand Island, N.Y.) supplemented with 10% fetal bovine serum (FBS; Gibco) at 37° C. in a humidified incubator containing 5% CO2.
Cell proliferation PC-3 cells were seeded into six-well plates at 50,000 cells/well in 10% FBS-containing RPMI 1640 medium. Following a 24 h attachment period, cells were treated in triplicate with the indicated concentration of compounds 1-36 or DMSO vehicle in 10% FBS-containing RPMI-1640 medium. At different time intervals, cells were harvested by trypsinization, and numerated using a Coulter counter model Z1 D/T (Beckman Coulter, Fullerton, Calif.).

Akt = assay: Immunoprecipitated Akt kinase assay from drug-treated PC-3 cells (intracellular Akt activation); format: cell-based, human; conditions: PC-3 cells treated 2 h, read-out: IC50 for inhibiting intracellular Akt activation
Description: Immunoprecipitated Akt kinase assay Akt immunoprecipitation was carried out according to a modified, published procedure. PC-3 cells were treated with DMSO vehicle or the test agents at the indicated concentrations for 2 h and then lysed at 4° C for 1 h in buffer A containing 50 mM Tris-HCl, pH 7.5, 1% Triton X-100, 1 mM EDTA, 1 mM EGTA, 50 mM sodium fluoride, 10 mM sodium β-glycerophosphate. 0.1% 2-mercaptoethanol, 0.1 mM phenylmethylsulfonyl fluoride, and 1 μg/mL each of aprotinin, pepstatin, and leupeptin. Cell lysates were centrifuged at 10,000 g for 5 min, and the supernatant was treated with anti-Akt at 4° C. for 60 min., followed by protein G-agarose beads for additional 60 min. The immunoprecipitate was used to analyze Akt kinase activity by using the Akt/SGK-specific peptide substrate RPRAATF as described above. Values represented the means of two independent determinations.

PC-3 cells [5] = assay: Cell viability analysis (MTT) in PC-3 cells; format: cell-based, human
Description: as §5
Cell viability analysis The effect of 4-[5-(4-methylphenyl)-3-(trifluoromethyl)-1H-pyrazol-1-yl]benzenesulfonamide and its derivatives on PC-3 cell viability was assessed by using the MTT {[3-(4,5-dimethylthiazol-2-yl)-2,5-diphenyl-2H-tetrazolium bromide]} assay in six replicates. Cells were grown in 10% FBS-supplemented RPMI 1640 medium in 96-well, flat bottomed plates for 24 h, and were exposed to various concentrations of compounds 1-36 dissolved in DMSO (final concentration ≦0.1%) in 1% serum-containing RPMI 1640 medium for different time intervals. Controls received DMSO vehicle at a concentration equal to that in drug-treated cells. The medium was removed, replaced by 200 μl of 0.5 mg/ml of MTT in 10% FBS-containing RPMI-1640 medium, and cells were incubated in the CO2 incubator at 37° C. for 2 h. Supernatants were removed from the wells, and the reduced MTT dye was solubilized in 200 μL/well DMSO. Absorbance at 570 nm was determined on a plate reader.

phospho-473Ser Akt = assay: Western blot of Akt and phospho-Akt in PC-3 cells; format: cell-based, human; conditions: 5 μM and above, 2 h
Description: Immunoblotting. The general procedure for the Western blot analysis of Akt and phospho-Akt is described as follows. Cells were washed in PBS, resuspended in SDS sample buffer sonicated by an ultrasonic sonicator for 5 sec, and boiled for 5 min. After brief centrifugation, equivalent protein concentrations from the soluble fractions were resolved in 10% SDS-polyacrylamide gels on a Minigel apparatus, and transferred to a nitrocellulose membrane using a semi-dry transfer cell. The transblotted membrane was washed three times with TBS containing 0.05% Tween 20 (TBST). After blocking with TBST containing 5% nonfat milk for 60 min., the membrane was incubated with the primary antibody at 1:1,000 dilution in TBST-5% low fat milk at 4° C. for 12 h, and was then washed three times with TBST. The membrane was probed with goat anti-rabbit IgG-HRP conjugates (1:1,000) for 1 h at room temperature, and was washed with TBST three times. The immunoblots were visualized by enhanced chemiluminescence.

N=C(N)Nc1ccc(-n2nc(C(F)(F)F)cc2-c2ccc3c(ccc4ccccc43)c2)cc1 [Compound 71, 4-[5-(2-Phenanthrenyl)-3-(trifluoromethyl)-1H-pyrazol-1-yl]-phenyl-guanidine]
oral absorption [1]: can be orally absorbed | average serum concentrations relative to TGI ([1]; po): average serum concentrations several-fold higher than TGI | Percent Growth (U251): −12% | Percent Growth (UO-31; Log10 Concentration −4.0): −35% | Percent Growth (UO-31; Log10 Concentration −5.0): −100% | Percent Growth (RXP 393; Log10 Concentration −4.0): −4% | Percent Growth (RXP 393; Log10 Concentration −5.0): −61% | range in which cell growth is completely suppressed in a diverse range of tumor cell lines [2]: 3 to 5 µM | concentration at which many cell lines respond to the growth inhibitory effect ([2]; two-day exposure, 5% FBS-containing medium): ≥ 0.1 µM | GI50 ([2]; two-day treatment, serum-containing medium, read-out: mean GI50 among the sixty cell lines): 1.3 µM | direct inhibitory effect on immunoprecipitated Akt kinase activity (immunoprecipitated Akt): no appreciable direct inhibition | Percent Growth (LOX IMVI; Log10 Concentration −4.0): −53% | Percent Growth (LOX IMVI; Log10 Concentration −5.0): −98% | Percent Growth (MALNE-3M; Log10 Concentration −4.0): −50% | Percent Growth (MALNE-3M; Log10 Concentration −5.0): −87% | Percent Growth (MCP7; Log10 Concentration −4.0): −49% | Percent Growth (MCP7; Log10 Concentration −5.0): −84% | toxicity to the animals [3]: little toxicity | Percent Growth (NCI-H322M; Log10 Concentration −4.0): −59% | Percent Growth (NCI-H322M; Log10 Concentration −5.0): −100% | increase in PDK-1 inhibition potency over compound 59 (recombinant PDK-1): five-fold | Percent Growth (HS 57BT; Log10 Concentration −4.0): −38% | Percent Growth (HS 57BT; Log10 Concentration −5.0): −69%

4-[5-(2-phenanthrenyl)-3-(trifluoromethyl)-1H-1-yl]benzenesulfonamide [Compound 59]
anti-proliferative activity on PC-3 cell proliferation (PC-3 cells [4]): substantial anti-proliferative activity | IC50 (Akt): 5 µM | direct inhibitory effect on immunoprecipitated Akt kinase activity (immunoprecipitated Akt): Neither compound 59 nor other the other compounds displayed a direct inhibitory effect; also recorded: no appreciable direct inhibition | IC50 (PC-3 cells [5]; 24 h, 1% FBS-containing RPMI 1640 medium, read-out: dose required to induce 50% PC-3 cell death): 5 µM | IC50 (PC-3 cells [5]; inducing apoptotic death in PC-3 cells / PC-3 cell viability, read-out: IC50 PC-3): 5 µM | Akt dephosphorylation (Western blot) (phospho-473Ser Akt): significant Akt dephosphorylation | improvement of IC50 values (PDK-1 and PC-3) over the comparative compound (recombinant PDK-1): five- to six-fold
